Measured values published in the NIST ThermoML archive (doi:10.1021/je200811n).
± gives the expanded uncertainty stated by the source.

Conditions: Hot wire method

C=C(F)C(F)(F)F [2,3,3,3-tetrafluoro-1-propene]
Conditions	thermal conductivity [W/m/K]
261.41 K, 6311 kPa, Liquid	0.07964 ± 0.00089
261.48 K, 992 kPa, Liquid	0.07655 ± 0.00085
261.48 K, 996 kPa, Liquid	0.07656 ± 0.00089
261.5 K, 6309 kPa, Liquid	0.07953 ± 0.0009
261.84 K, 987 kPa, Liquid	0.07643 ± 0.00085
261.85 K, 6313 kPa, Liquid	0.07948 ± 0.00089
261.87 K, 11445 kPa, Liquid	0.08189 ± 0.00093
261.88 K, 21642 kPa, Liquid	0.0867 ± 0.00099
261.96 K, 983 kPa, Liquid	0.07514 ± 0.00084
261.97 K, 1005 kPa, Liquid	0.07519 ± 0.00084
261.97 K, 6311 kPa, Liquid	0.07846 ± 0.00087
261.97 K, 11446 kPa, Liquid	0.0813 ± 0.00091
261.98 K, 21635 kPa, Liquid	0.08614 ± 0.00098
262.35 K, 11445 kPa, Liquid	0.08085 ± 0.00089
262.35 K, 16435 kPa, Liquid	0.08308 ± 0.00091
262.35 K, 21632 kPa, Liquid	0.08538 ± 0.00094
262.36 K, 6309 kPa, Liquid	0.0784 ± 0.00086
262.37 K, 990 kPa, Liquid	0.0754 ± 0.00084
262.38 K, 999 kPa, Liquid	0.07563 ± 0.00084
262.48 K, 21630 kPa, Liquid	0.08542 ± 0.00094
262.49 K, 11446 kPa, Liquid	0.08082 ± 0.00089
262.49 K, 16441 kPa, Liquid	0.08301 ± 0.00091
262.51 K, 984 kPa, Liquid	0.07532 ± 0.00083
262.51 K, 6308 kPa, Liquid	0.07834 ± 0.00086
262.53 K, 1003 kPa, Liquid	0.0754 ± 0.00083
262.87 K, 94 kPa, Gas	0.01103 ± 0.00038
262.87 K, 141 kPa, Gas	0.01112 ± 0.00038
262.87 K, 180 kPa, Gas	0.01121 ± 0.00039
262.87 K, 21632 kPa, Liquid	0.08568 ± 0.00094
262.89 K, 16441 kPa, Liquid	0.0831 ± 0.00091
262.9 K, 11444 kPa, Liquid	0.08074 ± 0.00089
262.93 K, 6308 kPa, Liquid	0.07833 ± 0.00086
262.95 K, 981 kPa, Liquid	0.07547 ± 0.00083
262.97 K, 1000 kPa, Liquid	0.07554 ± 0.00084
263.04 K, 21629 kPa, Liquid	0.08528 ± 0.00093
263.06 K, 16439 kPa, Liquid	0.0831 ± 0.00091
263.08 K, 11447 kPa, Liquid	0.08051 ± 0.00089
263.1 K, 94 kPa, Gas	0.01092 ± 0.00038
263.1 K, 139 kPa, Gas	0.01099 ± 0.00038
263.1 K, 178 kPa, Gas	0.01109 ± 0.00038
263.11 K, 6306 kPa, Liquid	0.07818 ± 0.00086
263.14 K, 981 kPa, Liquid	0.07525 ± 0.00083
263.15 K, 1006 kPa, Liquid	0.07526 ± 0.00083
263.3 K, 186 kPa, Gas	0.01073 ± 0.00037
263.33 K, 145 kPa, Gas	0.01079 ± 0.00037
263.34 K, 176 kPa, Gas	0.01103 ± 0.00038
263.35 K, 137 kPa, Gas	0.01093 ± 0.00038
263.36 K, 94 kPa, Gas	0.01083 ± 0.00037
263.41 K, 93 kPa, Gas	0.01084 ± 0.00037
263.45 K, 21625 kPa, Liquid	0.0853 ± 0.00094
263.47 K, 16441 kPa, Liquid	0.08318 ± 0.00091
263.51 K, 11446 kPa, Liquid	0.08071 ± 0.00089
263.55 K, 6310 kPa, Liquid	0.07796 ± 0.00086
263.59 K, 977 kPa, Liquid	0.0751 ± 0.00083
263.61 K, 184 kPa, Gas	0.01083 ± 0.00037
263.61 K, 1002 kPa, Liquid	0.07516 ± 0.00083
263.65 K, 21628 kPa, Liquid	0.08509 ± 0.00093
263.66 K, 143 kPa, Gas	0.01082 ± 0.00037
263.68 K, 16436 kPa, Liquid	0.08284 ± 0.00091
263.72 K, 11448 kPa, Liquid	0.08052 ± 0.00089
263.76 K, 94 kPa, Gas	0.01087 ± 0.00038
263.77 K, 6312 kPa, Liquid	0.07776 ± 0.00086
263.83 K, 978 kPa, Liquid	0.07472 ± 0.00084
263.83 K, 1003 kPa, Liquid	0.0748 ± 0.00084
263.97 K, 181 kPa, Gas	0.01086 ± 0.00038
264.03 K, 141 kPa, Gas	0.01087 ± 0.00038
264.1 K, 21626 kPa, Liquid	0.08524 ± 0.00093
264.13 K, 94 kPa, Gas	0.01089 ± 0.00038
264.14 K, 16440 kPa, Liquid	0.08287 ± 0.00091
264.18 K, 11446 kPa, Liquid	0.08043 ± 0.00089
264.33 K, 21622 kPa, Liquid	0.08504 ± 0.00094
264.34 K, 179 kPa, Gas	0.01089 ± 0.00038
264.38 K, 16435 kPa, Liquid	0.08267 ± 0.00091
264.41 K, 140 kPa, Gas	0.01091 ± 0.00038
264.42 K, 11443 kPa, Liquid	0.08017 ± 0.00088
264.55 K, 94 kPa, Gas	0.01091 ± 0.00038
264.75 K, 177 kPa, Gas	0.01092 ± 0.00038
264.83 K, 138 kPa, Gas	0.01094 ± 0.00038
264.99 K, 94 kPa, Gas	0.01095 ± 0.00038
271.81 K, 106 kPa, Gas	0.01176 ± 0.0004
271.82 K, 144 kPa, Gas	0.01183 ± 0.00041
271.83 K, 200 kPa, Gas	0.01195 ± 0.00041
272.04 K, 105 kPa, Gas	0.01163 ± 0.0004
272.04 K, 200 kPa, Gas	0.01186 ± 0.00041
272.05 K, 143 kPa, Gas	0.0117 ± 0.0004
272.22 K, 246 kPa, Gas	0.01157 ± 0.0004
272.22 K, 271 kPa, Gas	0.01155 ± 0.0004
272.24 K, 200 kPa, Gas	0.01151 ± 0.0004
272.28 K, 200 kPa, Gas	0.01178 ± 0.0004
272.29 K, 104 kPa, Gas	0.01154 ± 0.0004
272.29 K, 148 kPa, Gas	0.01151 ± 0.0004
272.3 K, 141 kPa, Gas	0.01161 ± 0.0004
272.34 K, 108 kPa, Gas	0.01153 ± 0.0004
272.5 K, 272 kPa, Gas	0.01161 ± 0.0004
272.54 K, 200 kPa, Gas	0.01154 ± 0.0004
272.6 K, 146 kPa, Gas	0.01157 ± 0.0004
272.67 K, 107 kPa, Gas	0.01162 ± 0.0004
272.83 K, 272 kPa, Gas	0.0116 ± 0.0004
272.84 K, 263 kPa, Gas	0.01161 ± 0.0004

Conditions	thermal conductivity [W/m/K]
263.15 K, Liquid	0.07493 ± 0.0005
